# According to US8192962B2, “Processes for detecting toxic substances” (Daikin Industries, Ltd., priority 2001, dated 2012):
# Tested on: Unknown protein yeast genes
# Experiment: DNA chip mRNA expression in yeast, unknown protein yeast genes (Table 1)
# Type: cell-based, Saccharomyces cerevisiae S288C
# Summary of the method: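 Whole-genome yeast DNA chip hybridization (65° C., >12 h) of Cy-labeled cDNA from S288C cells exposed 2 h at 25° C. to a sub-lethal toxicant dose in YPD; value is intensity relative to chemical-free control.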
smiles,measurement,setting,value
"Cl[C@H]1[C@H](Cl)[C@@H](Cl)[C@@H](Cl)[C@H](Cl)[C@H]1Cl [(7), γ-hexachlorocyclohexane]",The level of expressed mRNA in the presence of chemical substance/The level of expressed mRNA in the absence of chemical substance,"yeast gene YKL195W, incubated two hours with chemical substance",2.1
same,The level of expressed mRNA in the presence of chemical substance/The level of expressed mRNA in the absence of chemical substance,"yeast gene YKR091W, incubated two hours with chemical substance",1.3
same,The level of expressed mRNA in the presence of chemical substance/The level of expressed mRNA in the absence of chemical substance,"yeast gene YLR054C, incubated two hours with chemical substance",1.1
same,The level of expressed mRNA in the presence of chemical substance/The level of expressed mRNA in the absence of chemical substance,"yeast gene YLR149C, incubated two hours with chemical substance",1.6
same,The level of expressed mRNA in the presence of chemical substance/The level of expressed mRNA in the absence of chemical substance,"yeast gene YLR152C, incubated two hours with chemical substance",1.4
same,The level of expressed mRNA in the presence of chemical substance/The level of expressed mRNA in the absence of chemical substance,"yeast gene YLR194C, incubated two hours with chemical substance",1.0
same,The level of expressed mRNA in the presence of chemical substance/The level of expressed mRNA in the absence of chemical substance,"yeast gene YLR324W, incubated two hours with chemical substance",1.0
same,The level of expressed mRNA in the presence of chemical substance/The level of expressed mRNA in the absence of chemical substance,"yeast gene YLR350W, incubated two hours with chemical substance",1.2
same,The level of expressed mRNA in the presence of chemical substance/The level of expressed mRNA in the absence of chemical substance,"yeast gene YLR387C, incubated two hours with chemical substance",1.1
same,The level of expressed mRNA in the presence of chemical substance/The level of expressed mRNA in the absence of chemical substance,yeast gene YLR460C,1.1
same,The level of expressed mRNA in the presence of chemical substance/The level of expressed mRNA in the absence of chemical substance,"yeast gene YML117W, incubated two hours with chemical substance",0.7
same,The level of expressed mRNA in the presence of chemical substance/The level of expressed mRNA in the absence of chemical substance,"yeast gene YMR009W, incubated two hours with chemical substance",1.9
same,The level of expressed mRNA in the presence of chemical substance/The level of expressed mRNA in the absence of chemical substance,"yeast gene YMR067C, incubated two hours with chemical substance",1.2
same,The level of expressed mRNA in the presence of chemical substance/The level of expressed mRNA in the absence of chemical substance,yeast gene YMR090W,2.7
same,The level of expressed mRNA in the presence of chemical substance/The level of expressed mRNA in the absence of chemical substance,"yeast gene YMR095C, incubated two hours with chemical substance",1.2
same,The level of expressed mRNA in the presence of chemical substance/The level of expressed mRNA in the absence of chemical substance,"yeast gene YMR097C, incubated two hours with chemical substance",1.5
same,The level of expressed mRNA in the presence of chemical substance/The level of expressed mRNA in the absence of chemical substance,"yeast gene YMR102C, incubated two hours with chemical substance",1.8
same,The level of expressed mRNA in the presence of chemical substance/The level of expressed mRNA in the absence of chemical substance,"yeast gene YMR107W, incubated two hours with chemical substance",1.2
same,The level of expressed mRNA in the presence of chemical substance/The level of expressed mRNA in the absence of chemical substance,"yeast gene YMR180C, incubated two hours with chemical substance",1.7
same,The level of expressed mRNA in the presence of chemical substance/The level of expressed mRNA in the absence of chemical substance,"yeast gene YMR184W, incubated two hours with chemical substance",1.6
same,The level of expressed mRNA in the presence of chemical substance/The level of expressed mRNA in the absence of chemical substance,"yeast gene YMR191W, incubated two hours with chemical substance",2.0
same,The level of expressed mRNA in the presence of chemical substance/The level of expressed mRNA in the absence of chemical substance,"yeast gene YMR295C, incubated two hours with chemical substance",1.3
same,The level of expressed mRNA in the presence of chemical substance/The level of expressed mRNA in the absence of chemical substance,"yeast gene YMR316W, incubated two hours with chemical substance",2.0
same,The level of expressed mRNA in the presence of chemical substance/The level of expressed mRNA in the absence of chemical substance,"yeast gene YNL044W, incubated two hours with chemical substance",0.9
same,The level of expressed mRNA in the presence of chemical substance/The level of expressed mRNA in the absence of chemical substance,"yeast gene YNL074C, incubated two hours with chemical substance",1.1
same,The level of expressed mRNA in the presence of chemical substance/The level of expressed mRNA in the absence of chemical substance,"yeast gene YNL092W, incubated two hours with chemical substance",1.6
same,The level of expressed mRNA in the presence of chemical substance/The level of expressed mRNA in the absence of chemical substance,"yeast gene YNL115C, incubated two hours with chemical substance",2.4
same,The level of expressed mRNA in the presence of chemical substance/The level of expressed mRNA in the absence of chemical substance,"yeast gene YNL156C, incubated two hours with chemical substance",1.9
same,The level of expressed mRNA in the presence of chemical substance/The level of expressed mRNA in the absence of chemical substance,"yeast gene YNL234W, incubated two hours with chemical substance",1.2
same,The level of expressed mRNA in the presence of chemical substance/The level of expressed mRNA in the absence of chemical substance,"yeast gene YNL281W, incubated two hours with chemical substance",1.2
same,The level of expressed mRNA in the presence of chemical substance/The level of expressed mRNA in the absence of chemical substance,"yeast gene YNL305C, incubated two hours with chemical substance",1.7
same,The level of expressed mRNA in the presence of chemical substance/The level of expressed mRNA in the absence of chemical substance,"yeast gene YNR068C, incubated two hours with chemical substance",1.8
same,The level of expressed mRNA in the presence of chemical substance/The level of expressed mRNA in the absence of chemical substance,"yeast gene YOL032W, incubated two hours with chemical substance",1.4
same,The level of expressed mRNA in the presence of chemical substance/The level of expressed mRNA in the absence of chemical substance,"yeast gene YOL036W, incubated two hours with chemical substance",1.0
same,The level of expressed mRNA in the presence of chemical substance/The level of expressed mRNA in the absence of chemical substance,"yeast gene YOL047C, incubated two hours with chemical substance",1.3
same,The level of expressed mRNA in the presence of chemical substance/The level of expressed mRNA in the absence of chemical substance,"yeast gene YOL071W, incubated two hours with chemical substance",2.0
same,The level of expressed mRNA in the presence of chemical substance/The level of expressed mRNA in the absence of chemical substance,"yeast gene YOL082W, incubated two hours with chemical substance",2.5
same,The level of expressed mRNA in the presence of chemical substance/The level of expressed mRNA in the absence of chemical substance,"yeast gene YOL083W, incubated two hours with chemical substance",3.1
same,The level of expressed mRNA in the presence of chemical substance/The level of expressed mRNA in the absence of chemical substance,"yeast gene YOL117W, incubated two hours with chemical substance",1.6
same,The level of expressed mRNA in the presence of chemical substance/The level of expressed mRNA in the absence of chemical substance,"yeast gene YOL131W, incubated two hours with chemical substance",1.3
same,The level of expressed mRNA in the presence of chemical substance/The level of expressed mRNA in the absence of chemical substance,yeast gene YOL150C,2.4
same,The level of expressed mRNA in the presence of chemical substance/The level of expressed mRNA in the absence of chemical substance,"yeast gene YOL162W, incubated two hours with chemical substance",2.0
same,The level of expressed mRNA in the presence of chemical substance/The level of expressed mRNA in the absence of chemical substance,"yeast gene YOR019W, incubated two hours with chemical substance",2.8
same,The level of expressed mRNA in the presence of chemical substance/The level of expressed mRNA in the absence of chemical substance,"yeast gene YOR197W, incubated two hours with chemical substance",0.9
same,The level of expressed mRNA in the presence of chemical substance/The level of expressed mRNA in the absence of chemical substance,"yeast gene YPL087W, incubated two hours with chemical substance",4.2
same,The level of expressed mRNA in the presence of chemical substance/The level of expressed mRNA in the absence of chemical substance,"yeast gene YPL196W, incubated two hours with chemical substance",2.4
same,The level of expressed mRNA in the presence of chemical substance/The level of expressed mRNA in the absence of chemical substance,"yeast gene YPL206C, incubated two hours with chemical substance",1.2
same,The level of expressed mRNA in the presence of chemical substance/The level of expressed mRNA in the absence of chemical substance,"yeast gene YPL222W, incubated two hours with chemical substance",1.1
same,The level of expressed mRNA in the presence of chemical substance/The level of expressed mRNA in the absence of chemical substance,"yeast gene YPR023C, incubated two hours with chemical substance",1.2
same,The level of expressed mRNA in the presence of chemical substance/The level of expressed mRNA in the absence of chemical substance,"yeast gene YPR151C, incubated two hours with chemical substance",4.4
